Data on 28 molecules can be found in patent publication US9969726B2, “Metabotropic glutamate receptor negative allosteric modulators (NAMS) and uses thereof” (Sanford-Burnham Medical Research Institute, priority 2014, dated 2018).

A word on the EC50: it is the midpoint of the concentration-response curve.

Like-named read-outs stand apart in the source and are kept apart here. Where only a bound is given, the exact number is not on record here.

For one assay, the target named is rat mGlu2 receptor (Rattus norvegicus (Rat), UniProt P31421). The assay is described as follows: mGlu2 in vitro GIRK thallium flux assay. Type of assay: cell-based. Particulars: NAM, EC80 glutamate, HEK-293 GIRK cells. The procedure, abridged: (§1)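 Cells expressing rat mGlu2 or mGlu3 with GIRK, plated overnight at 37 °C. Test compounds (0.3% DMSO, 10-point 1:3 series) preincubated 2.5 or 60 min, then thallium buffer plus EC80 glutamate added. Fluorescence slope 5–15 s after addition, normalised to vehicle and maximal agonist, fitted by four-parameter logistic.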

Another assay has as its target rat mGlu3 receptor (Rattus norvegicus (Rat), UniProt P31422). The assay is described as follows: mGlu3 in vitro GIRK thallium flux assay. Type of assay: cell-based. The settings on record: NAM; 2.5 min compound incubation; EC80 glutamate; HEK-293 GIRK cells. An outline of the steps: as §1
The mark [1] stands for this setting: 2.5 min compound incubation, read-out: mGlu2 EC50 (μM) (2.5 min).
[2] abbreviates: mGlu2 EC50 (μM) (60 min), 60 min compound incubation.
The mark [3] stands for this setting: read-out: mGlu2 EC50 (μM) (60 min), 60 min compound incubation.

rat mGlu2 receptor, sequence (P31421 19-872): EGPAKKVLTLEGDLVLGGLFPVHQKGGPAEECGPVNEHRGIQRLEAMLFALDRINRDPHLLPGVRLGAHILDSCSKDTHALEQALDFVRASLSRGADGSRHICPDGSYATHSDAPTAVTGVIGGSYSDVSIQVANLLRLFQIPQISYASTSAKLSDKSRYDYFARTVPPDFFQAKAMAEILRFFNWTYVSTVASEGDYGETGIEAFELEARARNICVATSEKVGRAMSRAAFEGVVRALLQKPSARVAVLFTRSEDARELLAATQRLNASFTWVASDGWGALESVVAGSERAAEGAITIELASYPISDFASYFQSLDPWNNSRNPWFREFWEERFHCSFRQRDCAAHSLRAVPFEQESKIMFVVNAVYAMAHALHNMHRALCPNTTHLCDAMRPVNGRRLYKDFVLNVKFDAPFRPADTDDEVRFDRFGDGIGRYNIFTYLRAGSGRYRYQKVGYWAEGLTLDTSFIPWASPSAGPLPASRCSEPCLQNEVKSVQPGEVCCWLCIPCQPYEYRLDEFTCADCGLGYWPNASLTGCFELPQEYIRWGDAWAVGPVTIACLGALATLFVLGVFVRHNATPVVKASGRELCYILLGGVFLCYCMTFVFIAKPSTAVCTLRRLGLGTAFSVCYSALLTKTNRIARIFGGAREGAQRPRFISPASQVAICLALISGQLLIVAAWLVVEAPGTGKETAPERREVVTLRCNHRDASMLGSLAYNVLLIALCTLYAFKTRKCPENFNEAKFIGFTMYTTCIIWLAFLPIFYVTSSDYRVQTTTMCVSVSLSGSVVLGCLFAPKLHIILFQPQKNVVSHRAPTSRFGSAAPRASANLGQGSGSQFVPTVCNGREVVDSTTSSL
rat mGlu3 receptor, sequence (P31422 23-879): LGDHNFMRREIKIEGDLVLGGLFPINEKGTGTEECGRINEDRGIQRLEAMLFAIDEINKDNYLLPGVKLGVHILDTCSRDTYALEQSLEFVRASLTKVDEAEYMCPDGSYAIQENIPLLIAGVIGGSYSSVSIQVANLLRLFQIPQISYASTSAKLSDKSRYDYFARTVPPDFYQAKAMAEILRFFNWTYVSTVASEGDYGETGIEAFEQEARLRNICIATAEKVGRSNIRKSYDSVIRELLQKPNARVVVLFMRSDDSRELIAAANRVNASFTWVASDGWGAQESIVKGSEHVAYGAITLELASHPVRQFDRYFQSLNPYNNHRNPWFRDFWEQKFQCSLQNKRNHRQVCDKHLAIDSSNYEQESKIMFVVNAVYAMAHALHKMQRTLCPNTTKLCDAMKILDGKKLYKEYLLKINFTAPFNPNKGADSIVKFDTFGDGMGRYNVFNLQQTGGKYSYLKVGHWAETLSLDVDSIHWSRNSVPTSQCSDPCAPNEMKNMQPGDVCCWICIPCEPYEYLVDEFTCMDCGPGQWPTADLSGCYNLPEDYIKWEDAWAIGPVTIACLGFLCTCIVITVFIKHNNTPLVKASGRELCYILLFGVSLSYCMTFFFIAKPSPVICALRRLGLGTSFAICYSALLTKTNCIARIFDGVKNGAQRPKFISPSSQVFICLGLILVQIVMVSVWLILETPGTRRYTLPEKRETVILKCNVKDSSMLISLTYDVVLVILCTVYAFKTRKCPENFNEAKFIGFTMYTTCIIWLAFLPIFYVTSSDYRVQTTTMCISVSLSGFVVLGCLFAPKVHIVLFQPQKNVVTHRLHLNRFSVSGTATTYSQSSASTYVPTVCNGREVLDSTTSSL

Consider `O=C(O)c1cccc(-c2cccc(-c3nc(-c4ccccc4)n(-c4cccc5ccccc45)n3)c2)c1` [Example 57, 3′-(1-(Naphthalen-1-yl)-5-phenyl-1H-1,2,4-triazol-3-yl)-[1,1′-biphenyl]-3-carboxylic Acid], for which the EC50 at rat mGlu2 receptor (setting [1]), on rat mGlu2 receptor (setting [2]) and at rat mGlu3 receptor was over 10 µM each time.
Regarding `O=C(O)c1ccc(-c2cccc(-c3nc(-c4ccc(C(F)(F)F)nc4)cc(C(F)(F)F)n3)c2)cc1` [Example 71, 3′-(4-(Trifluoromethyl)-6-(6-(trifluoromethyl)pyridin-3-yl)pyrimidin-2-yl)biphenyl-4-carboxylic Acid], the concentration giving a half-maximal response (EC50) on rat mGlu2 receptor (setting [1]), on rat mGlu2 receptor (setting [3]) and on rat mGlu3 receptor was over 10 µM throughout.
Consider `O=C(O)c1cccc(-c2cccc(-c3csc(-c4ccc(Cl)nc4)n3)c2)c1` [Example 35, 3′-(2-(6-Chloropyridin-3-yl)thiazol-4-yl)biphenyl-3-carboxylic Acid], for which the EC50 on rat mGlu2 receptor (setting [1]) is 3.83 µM; on rat mGlu2 receptor (setting [2]), 0.27 µM; at rat mGlu3 receptor, over 10 µM.
Turning to `N#Cc1cc(C2=Nc3ccc(Cl)cc3NC(=O)C2)ccn1` [Example 181, 4-(8-Chloro-2-oxo-2,3-dihydro-1H-benzo[b][1,4]diazepin-4-yl)picolinonitrile], the EC50 at rat mGlu2 receptor (setting [1]) and at rat mGlu3 receptor was over 10 µM throughout.
In the case of `Cc1ccccc1-c1cc(C(F)(F)F)nc(-c2cccc(-c3ccc(F)c(C(=O)O)c3)c2)n1` [Example 91, 4-Fluoro-3′-(4-o-tolyl-6-(trifluoromethyl)pyrimidin-2-yl)biphenyl-3-carboxylic acid], the EC50 was 1.52 µM at rat mGlu2 receptor (setting [1]), 0.28 µM at rat mGlu2 receptor (setting [3]) and over 10 µM at rat mGlu3 receptor.
Consider `O=C(O)c1cccc(-c2cccc(-c3csc(-c4cccc5ccccc45)n3)c2)c1` [Example 30], for which the EC50 on rat mGlu2 receptor (setting [1]) is over 10 µM; at rat mGlu2 receptor (setting [2]), over 10 µM; on rat mGlu3 receptor, over 30 µM.
Turning to `O=C(O)c1cc(-c2cccc(-c3nc(-c4cccnc4F)cc(C(F)(F)F)n3)c2)ccc1F` [Example 97, 4-Fluoro-3′-(4-(2-fluoropyridin-3-yl)-6-(trifluoromethyl)pyrimidin-2-yl)biphenyl-3-carboxylic Acid], the EC50 turned out to be 1.07 µM at rat mGlu2 receptor (setting [1]), 0.36 µM on rat mGlu2 receptor (setting [3]) and 2.21 µM at rat mGlu3 receptor.
Regarding `COc1ccc(-c2ccc3c(c2)NC(=O)CC(c2ccnc(Cl)c2)=N3)cc1OC` [Example 195, 4-(2-Chloropyridin-4-yl)-8-(3,4-dimethoxyphenyl)-1,3-dihydro-2H-benzo[b][1,4]diazepin-2-one], the EC50 on rat mGlu2 receptor (setting [1]) was 3.83 µM; on rat mGlu2 receptor (setting [3]), 2.62 µM; on rat mGlu3 receptor it was 1.39 µM.
On to `O=C(O)c1cccc(-c2cccc(-c3nc(-c4cccs4)n(-c4ccccc4)n3)c2)c1` [Example 53, 3′-(1-Phenyl-5-(thiophen-2-yl)-1H-1,2,4-triazol-3-yl)-[1,1′-biphenyl]-3-carboxylic Acid], for which the EC50 at rat mGlu2 receptor (setting [1]) is over 10 µM; at rat mGlu2 receptor (setting [2]), 3.67 µM; at rat mGlu3 receptor it was 4.29 µM.
Consider `O=C(O)c1ccoc1-c1cccc(-c2nc(-c3ccccc3)n(-c3ccccc3)n2)c1` [Example 62, 2-(3-(1,5-Diphenyl-1H-1,2,4-triazol-3-yl)phenyl)furan-3-carboxylic Acid], for which the EC50 is over 10 µM on rat mGlu2 receptor (setting [1]), over 30 µM at rat mGlu2 receptor (setting [2]) and 0.21 µM at rat mGlu3 receptor.
As to `Cc1cc2c(cc1C(F)(F)F)NC(=O)CC(c1cccc(Oc3ccccn3)c1)N2` (racemic) [Example 165, 7-Methyl-4-(3-(pyridin-2-yloxy)phenyl)-8-(trifluoromethyl)-4,5-dihydro-1H-benzo[b][1,4]diazepin-2(3H)-one], the EC50 was 4.37 µM on rat mGlu2 receptor (setting [1]), 1.47 µM on rat mGlu2 receptor (setting [2]) and 3.47 µM on rat mGlu3 receptor.
In the same order, the values of `O=C(O)c1cccc(-c2cccc(-c3noc(-c4ccccc4)n3)c2)c1` [Example 48, 3′-(5-Phenyl-1,2,4-oxadiazol-3-yl)-[1,1′-biphenyl]-3-carboxylic Acid] are 1.33 µM, 0.79 µM and over 10 µM.
With `Cc1nc(-c2cccc(-c3ccc(F)c(C(=O)O)c3)c2)cs1` [Example 6, 4-Fluoro-3′-(2-methylthiazol-4-yl)biphenyl-3-carboxylic Acid], the EC50 on rat mGlu2 receptor (setting [1]), on rat mGlu2 receptor (setting [2]) and on rat mGlu3 receptor was over 10 µM each time.
In the case of `O=C(O)c1cc(-c2cccc(-c3nc(-c4sccc4Cl)cc(C(F)(F)F)n3)c2)ccc1F` [Example 107, 3′-(4-(3-Chlorothiophen-2-yl)-6-(trifluoromethyl)pyrimidin-2-yl)-4-fluorobiphenyl-3-carboxylic Acid], the values for the EC50 on rat mGlu2 receptor (setting [1]) and at rat mGlu3 receptor were 4.53 µM and over 10 µM, respectively.
Take `O=C(O)c1cccc(-c2cccc(-c3cc(-c4ccccc4)[nH]n3)c2)c1` [Example 68, 3′-(5-Phenyl-1H-pyrazol-3-yl)-[1,1′-biphenyl]-3-carboxylic Acid]: the EC50 on rat mGlu2 receptor (setting [1]) is over 10 µM; at rat mGlu2 receptor (setting [3]) it was over 30 µM; at rat mGlu3 receptor, over 10 µM.
With `COc1ccc(C(=O)O)cc1-c1cccc(-c2nc(-c3ccc(C(F)(F)F)nc3)cc(C(F)(F)F)n2)c1` [Example 77, 6-Methoxy-3′-(4-(trifluoromethyl)-6-(6-(trifluoromethyl)pyridin-3-yl)pyrimidin-2-yl)biphenyl-3-carboxylic Acid], the EC50 on rat mGlu2 receptor (setting [1]) turned out to be 0.96 µM; on rat mGlu2 receptor (setting [3]) it was 0.29 µM; at rat mGlu3 receptor, 1.59 µM.
On to `O=C(O)c1cc(-c2cccc(-c3csc(-c4ccc(C(F)(F)F)nc4)n3)c2)ccc1F` [Example 5, 4-Fluoro-3′-(2-(6-(trifluoromethyl)pyridin-3-yl)thiazol-4-yl)biphenyl-3-carboxylic Acid], for which the values for the EC50 at rat mGlu2 receptor (setting [1]), at rat mGlu2 receptor (setting [2]) and at rat mGlu3 receptor were 1.35 µM, 0.85 µM and 3.11 µM, respectively.
Consider `O=C(O)c1cccc(-c2cccc(-c3coc(-c4ccccc4)c3)c2)c1` [Example 46, 3′-(5-phenylfuran-3-yl)biphenyl-3-carboxylic Acid], for which the EC50 at rat mGlu2 receptor (setting [1]) is over 10 µM; at rat mGlu2 receptor (setting [2]), over 10 µM; at rat mGlu3 receptor it was over 30 µM.
As to `COc1ccc(-c2cccc(-c3csc(-c4ccccc4)n3)c2)cc1C(=O)O` [Example 12, 4-Methoxy-3′-(2-phenylthiazol-4-yl)-[1,1′-biphenyl]-3-carboxylic Acid], the EC50 turned out to be 1.73 µM on rat mGlu2 receptor (setting [1]), 2.14 µM at rat mGlu2 receptor (setting [2]) and 1.77 µM at rat mGlu3 receptor.
On the same counts, the results for `O=C(O)c1ccc(F)c(-c2cccc(-c3nc(-c4ccccc4)n(-c4ccccc4)n3)c2)c1` [Example 63, 3′-(1,5-Diphenyl-1H-1,2,4-triazol-3-yl)-6-fluoro-[1,1′-biphenyl]-3-carboxylic acid] are over 10 µM, over 10 µM and 4.45 µM.
As to `O=C(O)c1cc(-c2cccc(-c3nc(-c4ccc[nH]4)cc(C(F)(F)F)n3)c2)ccc1F` [Example 106, 3′-(4-(1H-Pyrrol-2-yl)-6-(trifluoromethyl)pyrimidin-2-yl)-4-fluorobiphenyl-3-carboxylic Acid], the EC50 stood at 1.19 µM at rat mGlu2 receptor (setting [1]), 1.42 µM on rat mGlu2 receptor (setting [3]) and 5.06 µM at rat mGlu3 receptor.
Turning to `CC(C)(C)c1ccc(-c2cc(C(F)(F)F)nc(-c3cccc(-c4ccc(F)c(C(=O)O)c4)c3)n2)cc1` [Example 96, 3′-(4-(4-tert-Butylphenyl)-6-(trifluoromethyl)pyrimidin-2-yl)-4-fluorobiphenyl-3-carboxylic Acid], the EC50 on rat mGlu2 receptor (setting [1]) turned out to be 5.38 µM; on rat mGlu2 receptor (setting [3]), 1.08 µM; at rat mGlu3 receptor it was 6.11 µM.
Consider `Cc1cc(-c2ccoc2)nc(-c2cccc(-c3cc(F)cc(C(=O)O)c3)c2)n1` [Example 121, 5-Fluoro-3′-(4-(furan-3-yl)-6-methylpyrimidin-2-yl)-[1,1′-biphenyl]-3-carboxylic Acid], for which the EC50 at rat mGlu2 receptor (setting [1]) was 0.35 µM; at rat mGlu2 receptor (setting [2]), 0.31 µM; at rat mGlu3 receptor, 2.21 µM.
Take `O=C(O)c1ccc(-c2cccc(-c3nc(-c4ccc(C(F)(F)F)nc4)cc(C(F)(F)F)n3)c2)cc1Cl` [Example 74, 3-Chloro-3′-(4-(trifluoromethyl)-6-(6-(trifluoromethyl)pyridin-3-yl)pyrimidin-2-yl)biphenyl-4-carboxylic Acid]: the EC50 at rat mGlu2 receptor (setting [1]) was 6.76 µM; at rat mGlu2 receptor (setting [3]), over 10 µM; at rat mGlu3 receptor, 6.52 µM.
In the case of `Fc1ccc(C#Cc2cccc(-c3nc(-c4ccc(C(F)(F)F)nc4)cc(C(F)(F)F)n3)c2)cc1` [Example 130, 2-(3-((4-Fluorophenyl)ethynyl)phenyl)-4-(trifluoromethyl)-6-(6-(trifluoromethyl)pyridin-3-yl)pyrimidine], the figures for the EC50 on rat mGlu2 receptor (setting [1]), at rat mGlu2 receptor (setting [3]) and on rat mGlu3 receptor were over 30 µM, over 10 µM and over 30 µM, respectively.
For the molecule `O=C(O)c1cccc(-c2cccc(-c3n[nH]c(-c4ccccc4)n3)c2)c1` [Example 65, 3′-(5-Phenyl-1H-1,2,4-triazol-3-yl)-[1,1′-biphenyl]-3-carboxylic Acid], the results for the EC50 at rat mGlu2 receptor (setting [1]), on rat mGlu2 receptor (setting [2]) and on rat mGlu3 receptor were over 10 µM, over 30 µM and over 30 µM, respectively.
Take `O=C(O)c1cccc(-c2cccc(-c3csc(-c4cccc(C(=O)O)c4)n3)c2)c1` [Example 33, 3-{4-[3-(3-Carboxyphenyl)phenyl]-1,3-thiazol-2-yl}benzoic acid]: the values for the EC50 on rat mGlu2 receptor (setting [1]), at rat mGlu2 receptor (setting [2]) and on rat mGlu3 receptor were 4.83 µM, over 10 µM and over 10 µM, respectively.
`O=C(O)c1cc(-c2cccc(-c3nc(-c4cc5ccccc5s4)cc(C(F)(F)F)n3)c2)ccc1F` [Example 102, 3′-(4-(Benzo[b]thiophen-2-yl)-6-(trifluoromethyl)pyrimidin-2-yl)-4-fluorobiphenyl-3-carboxylic Acid]: the EC50 at rat mGlu2 receptor (setting [1]) was 3.33 µM; at rat mGlu2 receptor (setting [3]) it was 0.88 µM; at rat mGlu3 receptor it was 3.12 µM.
